Like-named read-outs stand apart in the source and are kept apart here.
Tests used:
[1] = system: PARP; test: PARP cleavage, Western blot, Jurkat T cells; format: cell-based, human
Description: A library of β-lactam analogs was screened for their ability to induce apoptosis. […] This is followed by preparation of cell lysates and measurement of apoptosis-specific caspase-3 activation (by cell-free caspase-3 activity assay) and PARP cleavage (by Western blotting).

[2] = system: MCF-7 cells; test: MTT assay, MCF-7; format: cell-based, human; details: MCF-7, 50 μM, 24 hours
Experimental: MCF-7, MDA-MB-231, PC-3 and PCI-13 cells were grown to 50% confluency in a 24 well plate. […] A stock 5 mg/ml of MTT in serum-free media was then added to the cell cultures at a final concentration of 1 mg/ml, followed by a 3 hour incubation at 37° C. After cells crystallized, the media was removed and DMSO added to dissolve the metabolized MTT product. The absorbance was then measured on a Wallac Victor 1420 Multilabel counter at […].

[3] = system: Jurkat T cells; details: for inhibition of 3H-thymidine incorporation: Jurkat T cells
Experimental: Incorporation of ^3H-thymidine into cells was measured as disclosed in Smith D M and Dou Q P, 2001, Green tea polyphenol epigallocatechin inhibits DNA replication and consequently induces leukemia cell apoptosis. Int J Mol Med 7:645-52. Jurkat T cells are pre-treated with a selected lactam for the indicated number of hours, followed by co-incubation with 2 μl/ml of [methyl-^3H]-thymidine [80 Ci (1.5 TBq)/mMol] at 37° C. for 2 hours. After harvesting, the cell pellet is washed with PBS, resuspended in 0.5 ml of PBS and collected on a glass microfiber filter. The filter is then washed with 5 ml/filter of PBS, followed by 5 ml/filter of ice-cold 0.1N NaOH and 5 ml/filter of ethanol. The filters containing fixed DNA are dried, and the remaining radioactivity is measured on a scintillation counter.

[4] = system: MCF-7 cells; details: MCF-7, 50 μM, 24 hour
Experimental: (§1) To assay nuclear morphology, both the detached or remaining attached solid tumor cells were washed with PBS, fixed with 70% ethanol for 1 hour, and stained with Hoechst 33342 (50 μM) for 30 minutes. The nuclear morphology of cells was visualized by a fluorescence microscope.
(§2) Both attached and detached cell populations were then used for detection of apoptotic nuclear changes.

[5] = system: PC-3 cells; details: PC-3, 50 μM, 48 hour
Experimental: as §1, §2

[6] = system: MDA-MB-231 cells; details: MDA-MB-231, 50 μM, 48 hour
Experimental: as §1, §2

[7] = system: PCI-13 cells; details: PCI-13, 50 μM, 48 hour
Experimental: as §1, §2

[8] = system: NK cells (YT line); details: YT cells, 30 μM, 24 h
Experimental: The trypan blue dye exclusion assay was performed by mixing 20 μl of cell suspension with 20 μl of 0.4% trypan blue dye before injecting into a hemocytometer and counting. The number of cells that absorbed the dye and those that exclude the dye were counted, from which the percentage of nonviable cell number to total cell number was calculated.

**Q.** How did the PARP cleavage ([1]; 10 μM, 24 h) turn out when COC1C(=O)N(SC)C1c1ccccc1Cl (racemic) [lactam 1] was run?
**A.** induced apoptosis-specific PARP cleavage fragment p85

**Q.** And the “levels of PARP cleavage fragment p85” value ([1]; 25 μM, 24 h)?
**A.** further increased

**Q.** What about the “time at which PARP cleavage was first detected” value ([1]; 30 μM) of the same compound?
**A.** 3 h

**Q.** What about the “time at which PARP cleavage fragment p85 appears” value ([1]; 50 μM) of the same compound?
**A.** 4 h

**Q.** And the PARP cleavage ([1]; 50 μM, 8 hours)?
**A.** greatest potency

**Q.** What about the “level of PARP cleavage relative to that by 50 μM of lactam 47” value ([1]; 50 μM, 12 h) of the same compound?
**A.** ~50%

**Q.** What about the PARP degradation ([1]; 50 μM, 24 h) of the same compound?
**A.** PARP degradation was further increased

**Q.** And the “p85 PARP fragment” value ([1]; 8 hours, 20 μM)?
**A.** Low levels

**Q.** What about the “p85 PARP fragment” value ([1]; 8 hours, 50 μM) of the same compound?
**A.** significantly increased

**Q.** What about the “intact PARP protein and p85 PARP fragment” value ([1]; 8 hours, 60 μM) of the same compound?
**A.** almost complete degradation

**Q.** What about the “p85 PARP fragment” value ([1]; 8 hours, 30 and 40 μM) of the same compound?
**A.** further increased

**Q.** What about the “decrease of cellular viability (MTT)” value [2] of the same compound?
**A.** 80%

**Q.** And the “inhibition of 3H-thymidine incorporation” value ([3]; 20 μM, 2 h pre-incubation + 2 hour co-incubation)?
**A.** 20%

**Q.** And the “inhibition of 3H-thymidine incorporation” value ([3]; 30 μM, 2 h pre-incubation + 2 hour co-incubation)?
**A.** 45%

**Q.** What about the “inhibition of 3H-thymidine incorporation” value ([3]; 40 μM, 2 h pre-incubation + 2 hour co-incubation) of the same compound?
**A.** 90%

**Q.** What about the “inhibition of 3H-thymidine incorporation” value ([3]; 50 μM, added at the same time as 3H-thymidine, co-incubated 2 h) of the same compound?
**A.** ~70%

**Q.** And the “inhibition of 3H-thymidine incorporation” value ([3]; 50 μM, pre-incubation 2 to 8 h, then 2 hour with 3H-thymidine)?
**A.** 95%

**Q.** What about the “inhibition of 3H-thymidine incorporation” value ([3]; 50 or 60 μM, 2 h pre-incubation + 2 hour co-incubation) of the same compound?
**A.** ~100%

**Q.** What about the IC50 ([3]; read-out: half-maximal inhibition value for incorporation of 3H-thymidine (IC50), intact Jurkat cells, total treatment 4 h) of the same compound?
**A.** 32 µM

**Q.** And the cells detached [4]?
**A.** ~50%

**Q.** What about the “nuclear morphology of detached cells (Hoechst 33342)” value (from here on “nuclear morphology of detached cells”) [4] of the same compound?
**A.** typical apoptotic nuclear condensation and fragmentation

**Q.** And the “nuclear morphology of detached cells” value [5]?
**A.** apoptosis-specific nuclear morphology

**Q.** And the “nuclear morphology of detached cells” value [6]?
**A.** apoptosis-specific nuclear morphology

**Q.** And the “nuclear morphology of detached cells” value [7]?
**A.** apoptosis-specific nuclear morphology

**Q.** What about the “cell death (trypan blue)” value [8] of the same compound?
**A.** 9%

— US7635693B2, “Methods for preventing and treating cancer using N-thiolated β-lactam compounds and analogs thereof” (University of South Florida, priority 2002, dated 2009)
